Entries after “also recorded” stand apart in the source; their conditions may differ. Like-named read-outs stand apart in the source and are kept apart here.
Tests used:
[1] = tested on: OCT2 and MATE1; experiment: Inhibition of basolateral-to-apical transcellular transport of ASP+ in OCT2/MATE1 double-transfected MDCK cells (Transwell); conditions: human
Method: (§1) Control and OCT2/MATE1-expressing MDCK cells were evaluated for protein expression of OCT2 and MATE1 using SDS-PAGE and western blotting with specific primary antibodies (OCT2, sc292622 1:500 and MATE1, sc133390 1:250, Santa Cruz Biotechnology, Santa Cruz, CA, USA), followed by an antirabbit HRP-conjugated secondary antibody (1:1000, Sigma Aldrich, St. Louis, MO, USA) and Super Signal Western Dura Extended Duration Substrate (Pierce Biotechnology, Rockford, IL, USA). Detection was performed with a FluorChem imager (ProteinSimple, Santa Clara, CA, USA). Both MDCK cell lines were seeded on 0.4 μm transwell inserts (VWR, Radnor, PA, USA) at a density of 2 × 10^5 cells/cm^2. Transport experiments were performed 3 to 5 days after seeding. The integrity of MDCK monolayers was verified by measuring transepithelial electrical resistance (TEER) >150 Ω*cm^2 using an epithelial voltohmmeter, EVOM^2 (World Precision Instruments, Sarasota, FL). Proper formation of tight junctions was also verified by measurement of passive permeability of lucifer yellow in the basolateral-to-apical (B-to-A) direction. Lucifer yellow (20 μM) was applied to the basolateral chamber for 1 h, and media were collected from the apical chamber.
(§2) After washing the cells once with Hank’s Buffered Saline Solution (HBSS) pH 7.4, transport studies were initiated after aspirating the wash buffer from both the apical and basal chambers. […] Cells were lysed with 1% Triton X-100. […] Intracellular fluorescence was normalized to total protein concentration of cell lysates from each transwell using the BCA assay. Experiments were performed in three individual Transwell inserts.

[2] = target: T1, human OCT2 (Homo sapiens, UniProt O15244); experiment: Inhibition of ASP+ uptake in HEK293 cells overexpressing OCT2; type: cell-based; conditions: for IC50: HEK293-OCT2, ASP+ 10 μM, 1 min, 37 °C, Avg ± SE (n = 3)
T1 construct: expressed in transfected cells; gift of Dr. Kathy Giacomini, UCSF
T1 sequence (O15244 1-555): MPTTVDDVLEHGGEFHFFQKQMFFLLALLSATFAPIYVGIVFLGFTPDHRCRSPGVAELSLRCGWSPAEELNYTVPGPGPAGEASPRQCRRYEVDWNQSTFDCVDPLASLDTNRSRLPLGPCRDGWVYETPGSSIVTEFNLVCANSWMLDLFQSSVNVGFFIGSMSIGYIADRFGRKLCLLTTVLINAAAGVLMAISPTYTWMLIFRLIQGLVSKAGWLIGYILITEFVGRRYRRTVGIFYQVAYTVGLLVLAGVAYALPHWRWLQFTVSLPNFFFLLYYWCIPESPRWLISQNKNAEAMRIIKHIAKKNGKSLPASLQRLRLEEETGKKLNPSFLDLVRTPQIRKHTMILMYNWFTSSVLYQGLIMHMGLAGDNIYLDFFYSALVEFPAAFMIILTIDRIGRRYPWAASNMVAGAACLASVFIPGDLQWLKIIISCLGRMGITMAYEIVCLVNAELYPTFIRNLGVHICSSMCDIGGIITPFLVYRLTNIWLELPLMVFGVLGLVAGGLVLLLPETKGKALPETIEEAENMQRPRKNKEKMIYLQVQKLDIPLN
Method: (§3) After washing once with prewarmed Hank’s Buffered Saline Solution (HBSS), cells were preincubated for 30 min at 37 °C with various 5-HT3 antagonists for OCT2 cells or in a 30 mM NH4Cl solution in HBSS at pH 6.5 for MATE1 cells for intracellular acidification. Uptake into OCT2 cells was initiated through exposure to 10 μM of fluorescent substrate ASP^+ directly in the incubation media. Uptake into MATE1 cells was initiated by application of HBSS at pH 7.4 containing 5-HT3 antagonists and 10 μM of fluorescent substrate ASP^+. […] Media was removed and washed four times with ice-cold HBSS. Cells were lysed with 1% Triton X-100. […] Intracellular fluorescence was normalized to total protein concentration of cell lysates from each well using the bicinchoninic acid (BCA) assay (Pierce Biotechnology, Rockford, IL, USA). Experiments were repeated three separate times, with three to four replicates in each experiment.
(§4) GraphPad Prism v6 (GraphPad Software, La Jolla, CA, USA) was used for statistical analysis.

[3] = tested on: human OCT2 and MATE1; experiment: Intracellular accumulation of ASP+ in OCT2/MATE1 double-transfected MDCK cells; type: cell-based; conditions: 120 min; for effect on intracellular ASP+ accumulation: inhibitor 0.5–20 μM, ASP+ 25 μM; for increase in intracellular ASP+ accumulation: inhibitor 20 μM (highest concentration)
Method: Cells were incubated with 5-HT3 antagonists in the apical chamber in HBSS pH 6.0 and 5-HT3 antagonists with ASP^+ (25 μM) in the basolateral chamber in HBSS pH 7.4 and incubated at 37 °C for 120 min. To measure time-dependent transcellular transport, an aliquot of the incubation medium (100 μL) from the apical chamber (receiving chamber) was collected at 40, 60, 90, and 120 min and replaced with an equal volume of fresh buffer containing 5-HT3 antagonist or the positive control chemical at the original concentration. […] Cells were lysed with 1% Triton X-100. […] Experiments were performed in three individual Transwell inserts.

[4] = tested on: empty vector (EV) HEK293 cells; experiment: ASP+ uptake in empty vector (EV) HEK293 cells in presence of inhibitors; type: cell-based, human; conditions: ASP+ 10 μM
Text: Media was removed and washed four times with ice-cold HBSS. Cells were lysed with 1% Triton X-100. […] Experiments were repeated three separate times, with three to four replicates in each experiment.

[5] = tested on: human OCT2 and MATE1; experiment: Inhibition of basolateral-to-apical transcellular transport of ASP+ in OCT2/MATE1 double-transfected MDCK cells (Transwell); conditions: for effect on B-to-A transport of ASP+: inhibitor 0.5–20 μM, 40–120 min, ASP+ 25 μM; for effect on transcellular transport of ASP+: inhibitor 10 and 20 μM
Method: as §1, §2

[6] = no reference given, cited from earlier work; for metabolized by cytochrome P450 enzymes in the liver: range for the named drugs together
[7] = target: T2, MATE1 (Homo sapiens, UniProt Q96FL8); experiment: Inhibition of ASP+ uptake in HEK293 cells overexpressing MATE1; type: cell-based; conditions: for IC50: HEK293-MATE1, ASP+ 10 μM, 1 min, 37 °C, Avg ± SE (n = 3)
T2 construct: expressed in transfected cells; gift of Dr. Kathy Giacomini, UCSF
T2 sequence (Q96FL8 1-570): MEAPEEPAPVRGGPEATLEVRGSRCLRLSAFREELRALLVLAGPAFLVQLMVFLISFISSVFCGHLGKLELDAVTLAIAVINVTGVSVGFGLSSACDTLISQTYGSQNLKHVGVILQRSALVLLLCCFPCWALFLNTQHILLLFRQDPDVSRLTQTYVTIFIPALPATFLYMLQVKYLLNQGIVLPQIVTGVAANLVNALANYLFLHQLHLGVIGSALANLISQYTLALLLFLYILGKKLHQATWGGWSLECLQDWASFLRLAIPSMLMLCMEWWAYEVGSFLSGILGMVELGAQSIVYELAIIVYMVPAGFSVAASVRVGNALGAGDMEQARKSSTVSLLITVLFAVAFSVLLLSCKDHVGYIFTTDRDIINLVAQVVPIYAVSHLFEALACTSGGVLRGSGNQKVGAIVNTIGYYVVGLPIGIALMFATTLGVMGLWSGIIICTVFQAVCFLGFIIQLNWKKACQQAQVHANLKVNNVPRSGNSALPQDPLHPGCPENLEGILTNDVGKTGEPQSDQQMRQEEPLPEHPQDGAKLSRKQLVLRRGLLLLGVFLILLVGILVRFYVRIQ
Method: as §3, §4

[8] = probe ASP+ (25 μM, basolateral chamber)

SMILES | IC50 [2] [µM] | effect on ASP+ uptake in EV cells [4] | effect on B-to-A transport of ASP+ [5] | effect on transcellular transport of ASP+ [5] | half-life [6] [h] | IC50 [7] [µM] | metabolized by cytochrome P450 enzymes in the liver [6] | other results
CN/C(=N/CCSCc1nc[nH]c1C)NC#N [Cimetidine] | 24.5 ± 4 | had no influence on ASP^+ uptake | – | – | – | – | – | inhibition at 120 min, 5 μM [1, 8]: 18%; inhibition at 120 min, 50 μM [1, 8]: 40%; increase in intracellular accumulation of ASP+ ([3]; cimetidine concentration not stated in the sentence (5 and 50 μM tested)): 1.8 fold
O=C(O[C@@H]1C[C@@H]2C[C@H]3C[C@H](C1)N2CC3=O)c1c[nH]c2ccccc12 [Dolasetron] | 85.4 ± 3.4 | – | at 10 and 20 μM inhibited ASP^+ transport at 120 min only | similarly reduced the transcellular transport of ASP^+ | 8 to 9 | 27.4 ± 2.8 | – | effect on intracellular ASP+ accumulation [3]: No significant changes in ASP^+ accumulation
CN1C2CCCC1CC(NC(=O)c1nn(C)c3ccccc13)C2 (stereo not drawn) [Granisetron] | 3.8 ± 1.6 | caused a small decrease in ASP^+ accumulation | did not alter the B-to-A transport of ASP^+ at any concentration tested; also recorded: did not exhibit any significant inhibition | – | 8 to 9 | 5 ± 1.1 | 48–95% | increase in intracellular ASP+ accumulation [3]: 1.3 fold
O=C1c2cccc3c2[C@H](CCC3)CN1[C@@H]1CN2CCC1CC2 [Palonosetron] | 2.2 ± 0.3 | stimulated additional ASP^+ uptake | concentration-dependent inhibition of ASP^+ secretion, which was significant at 10 and 20 μM for all time-points | similarly reduced the transcellular transport of ASP^+ | 40 | 1.6 ± 0.6 | 48–95% | effect on intracellular ASP+ accumulation [3]: No significant changes in ASP^+ accumulation
CN1[C@@H]2CC[C@H]1C[C@@H](OC(=O)c1c[nH]c3ccccc13)C2 [Tropisetron] | 31.3 ± 6.6 | stimulated additional ASP^+ uptake | concentration-dependent inhibition of ASP^+ secretion, which was significant at 10 and 20 μM for all time-points | similarly reduced the transcellular transport of ASP^+ | < 6 | 1.6 ± 0.9 | 48–95% | increase in intracellular ASP+ accumulation [3]: 1.5 fold
C[C@@H](O[C@H]1OCCN(Cc2n[nH]c(=O)[nH]2)[C@H]1c1ccc(F)cc1)c1cc(C(F)(F)F)cc(C(F)(F)F)c1 [aprepitant] | – | – | – | – | – | – | – | effect on ASP+ uptake in OCT2-expressing HEK293 cells ([2]; ASP+ 10 μM): had no impact on ASP^+ uptake; effect on ASP+ uptake in MATE1-expressing HEK293 cells ([7]; ASP+ 10 μM): had no impact on ASP^+ uptake
CCN(CC)CCNC(=O)c1cc(Cl)c(N)cc1OC [metoclopramide] | – | – | – | – | – | – | – | effect on ASP+ uptake in OCT2-expressing HEK293 cells [2]: inhibited OCT2 activity across a range of concentrations; inhibition of MATE1 activity [7]: None of these drugs inhibited MATE1 activity
CN1CCN(CCCN2c3ccccc3Sc3ccc(Cl)cc32)CC1 [prochlorperazine] | – | – | – | – | – | – | – | effect on ASP+ uptake in OCT2-expressing HEK293 cells ([2]; ASP+ 10 μM): inhibited OCT2 activity across a range of concentrations; inhibition of MATE1 activity ([7]; inhibitor 10 μM, HEK293-MATE1 (data not shown)): None of these drugs inhibited MATE1 activity
CCc1nc(N)nc(N)c1-c1ccc(Cl)cc1 [pyrimethamine] | – | – | – | – | – | – | – | inhibition at 120 min, 1 μM [1]: 36%; increase in intracellular accumulation of ASP+ ([3]; inhibitor 1 μM): 1.3 fold
